Assay results: PubChem BioAssay (NCI)
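Method: 48-hour compound exposure of cells in 96-well plates, five concentrations, linear interpolation of endpoints. Here, GI50 denotes the concentration required for 50% inhibition of growth. TGI: total growth inhibition.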

How the values were obtained:
Experiment in all cases: DTP human tumour cell line panel, 48 h
[1] = test system: MOLT-4 leukemia
[2] = test system: HOP-92 NSCLC
[3] = test system: DU-145 prostate
[4] = test system: EKVX NSCLC
[5] = test system: SK-OV-3 ovarian
[6] = test system: A498 renal
[7] = test system: TK-10 renal
[8] = test system: K-562 leukemia
[9] = test system: NCI-H460 lung
[10] = test system: HT29 colon
[11] = test system: OVCAR-5 ovarian
[12] = test system: BT-549 breast
[13] = test system: COLO 205 colon
[14] = test system: NCI-H23 lung
[15] = test system: HS 578T breast
[16] = test system: U251 CNS
[17] = test system: SF-539 CNS
[18] = test system: LOX IMVI melanoma
[19] = test system: SK-MEL-28 melanoma
[20] = test system: KM12 colon
[21] = test system: OVCAR-8 ovarian
[22] = test system: T-47D breast
[23] = test system: MDA-MB-231 breast
[24] = test system: SNB-75 CNS
[25] = test system: CCRF-CEM leukemia
[26] = test system: RPMI-8226 leukemia
[27] = test system: SK-MEL-2 melanoma
[28] = test system: NCI/ADR-RES ovarian
[29] = test system: OVCAR-4 ovarian
[30] = test system: RXF 393 renal
[31] = test system: 786-0 renal
[32] = test system: HL-60(TB) leukemia
[33] = test system: HOP-62 NSCLC
[34] = test system: ACHN renal
[35] = test system: A549 NSCLC
[36] = test system: HCT-15 colon
[37] = test system: IGROV1 ovarian
[38] = test system: MALME-3M melanoma
[39] = test system: UACC-62 melanoma
[40] = test system: PC-3 prostate
[41] = test system: UACC-257 melanoma
[42] = test system: MCF7 breast
[43] = test system: HCT-116 colon
[44] = test system: NCI-H226 lung
[45] = test system: SNB-19 CNS
[46] = test system: SF-295 CNS
[47] = test system: SW-620 colon
[48] = test system: SK-MEL-5 melanoma
[49] = test system: SF-268 CNS
[50] = test system: UO-31 renal
[51] = test system: CAKI-1 renal
[52] = test system: SN12C renal
[53] = test system: M14 melanoma
[54] = test system: HCC-2998 colon

SMILES: CCC1=Cc2c(OC)cccc2OC12C=Cc1c(OC)cccc1O2 (stereo not drawn)
- GI50 [1]: 2390 nM
- TGI [1]: > 100000 nM
- GI50 [2]: 1000 nM
- TGI [2]: 8790 nM
- GI50 [3]: 2140 nM
- TGI [3]: > 100000 nM
- GI50 [4]: 4740 nM
- TGI [4]: > 100000 nM
- GI50 [5]: 2930 nM
- TGI [5]: > 100000 nM
- GI50 [6]: 1300 nM
- TGI [6]: 4170 nM
- GI50 [7]: 24500 nM
- TGI [7]: > 100000 nM
- GI50 [8]: 463 nM
- TGI [8]: > 100000 nM
- GI50 [9]: 2570 nM
- TGI [9]: 14200 nM
- GI50 [10]: 508 nM
- TGI [10]: 3760 nM
- GI50 [11]: 1840 nM
- TGI [11]: > 100000 nM
- GI50 [12]: 1610 nM
- TGI [12]: 6220 nM
- GI50 [13]: 1310 nM
- TGI [13]: 3700 nM
- GI50 [14]: 2930 nM
- TGI [14]: > 100000 nM
- GI50 [15]: 2550 nM
- TGI [15]: > 100000 nM
- GI50 [16]: 1090 nM
- TGI [16]: > 100000 nM
- GI50 [17]: 1570 nM
- TGI [17]: 9030 nM
- GI50 [18]: 1600 nM
- TGI [18]: > 100000 nM
- GI50 [19]: > 100000 nM
- TGI [19]: > 100000 nM
- GI50 [20]: 519 nM
- TGI [20]: 32400 nM
- GI50 [21]: 2150 nM
- TGI [21]: 6510 nM
- GI50 [22]: 16300 nM
- TGI [22]: > 100000 nM
- GI50 [23]: 2030 nM
- TGI [23]: 73200 nM
- GI50 [24]: 1310 nM
- TGI [24]: 9270 nM
- GI50 [25]: 551 nM
- TGI [25]: > 100000 nM
- GI50 [26]: 2870 nM
- TGI [26]: > 100000 nM
- GI50 [27]: 1220 nM
- TGI [27]: 6030 nM
- GI50 [28]: 678 nM
- TGI [28]: > 100000 nM
- GI50 [29]: 47400 nM
- TGI [29]: > 100000 nM
- GI50 [30]: 990 nM
- TGI [30]: 7290 nM
- GI50 [31]: 1840 nM
- TGI [31]: > 100000 nM
- GI50 [32]: 507 nM
- TGI [32]: > 100000 nM
- GI50 [33]: 1660 nM
- TGI [33]: > 100000 nM
- GI50 [34]: 2850 nM
- TGI [34]: > 100000 nM
- GI50 [35]: 1520 nM
- TGI [35]: > 100000 nM
- GI50 [36]: 469 nM
- TGI [36]: > 100000 nM
- GI50 [37]: 2500 nM
- TGI [37]: > 100000 nM
- GI50 [38]: 3790 nM
- TGI [38]: > 100000 nM
- GI50 [39]: 530 nM
- TGI [39]: > 100000 nM
- GI50 [40]: 1730 nM
- TGI [40]: > 100000 nM
- GI50 [41]: 7480 nM
- TGI [41]: > 100000 nM
- GI50 [42]: 414 nM
- TGI [42]: > 100000 nM
- GI50 [43]: 436 nM
- TGI [43]: > 100000 nM
- GI50 [44]: 2840 nM
- TGI [44]: 52100 nM
- GI50 [45]: 646 nM
- TGI [45]: > 100000 nM
- GI50 [46]: 1010 nM
- TGI [46]: > 100000 nM
- GI50 [47]: 707 nM
- TGI [47]: > 100000 nM
- GI50 [48]: 1240 nM
- TGI [48]: 8330 nM
- GI50 [49]: 3090 nM
- TGI [49]: > 100000 nM
- GI50 [50]: 2400 nM
- TGI [50]: > 100000 nM
- GI50 [51]: 858 nM
- TGI [51]: > 100000 nM
- GI50 [52]: 940 nM
- TGI [52]: > 100000 nM
- GI50 [53]: 570 nM
- TGI [53]: 22000 nM
- GI50 [54]: 2580 nM
- TGI [54]: 13200 nM
